Assay [1] concerns the target T1, Mucosa-associated lymphoid tissue lymphoma translocation protein 1 (Homo sapiens, UniProt Q9UDY8).
T1 sequence (Q9UDY8 whole entry): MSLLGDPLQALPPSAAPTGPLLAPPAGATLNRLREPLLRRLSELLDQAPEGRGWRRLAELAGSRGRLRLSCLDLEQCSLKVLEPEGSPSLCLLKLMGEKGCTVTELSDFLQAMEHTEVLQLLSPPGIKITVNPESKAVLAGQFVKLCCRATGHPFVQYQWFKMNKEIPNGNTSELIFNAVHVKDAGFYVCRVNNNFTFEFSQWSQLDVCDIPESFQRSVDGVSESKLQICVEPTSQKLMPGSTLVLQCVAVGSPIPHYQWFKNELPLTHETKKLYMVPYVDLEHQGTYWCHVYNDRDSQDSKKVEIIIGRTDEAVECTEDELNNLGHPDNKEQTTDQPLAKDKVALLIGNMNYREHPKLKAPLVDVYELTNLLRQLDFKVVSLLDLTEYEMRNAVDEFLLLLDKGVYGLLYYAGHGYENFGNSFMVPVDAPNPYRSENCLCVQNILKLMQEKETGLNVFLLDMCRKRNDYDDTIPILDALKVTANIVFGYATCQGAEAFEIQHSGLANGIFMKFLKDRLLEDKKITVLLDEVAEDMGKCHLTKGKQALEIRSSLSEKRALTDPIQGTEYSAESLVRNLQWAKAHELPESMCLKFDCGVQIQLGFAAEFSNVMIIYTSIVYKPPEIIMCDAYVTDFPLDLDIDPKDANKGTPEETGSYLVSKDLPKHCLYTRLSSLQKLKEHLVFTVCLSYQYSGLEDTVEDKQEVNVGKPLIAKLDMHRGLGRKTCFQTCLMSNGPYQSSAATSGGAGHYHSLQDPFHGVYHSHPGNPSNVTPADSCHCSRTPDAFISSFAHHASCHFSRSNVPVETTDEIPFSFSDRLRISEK
Kind of assay: MALT1 Protease Assay 1. As for the experimental part:
The final assay buffer includes 2 nM of MALT1 full-length protein, 50 μM Ac-LRSR-AMC substrate, 50 mM Tris pH 7.5, 600 mM Sodium Citrate, 1 mM DTT, 1 mM EDTA, and 0.05% BSA in 384-well plate format using black microtiter square well plates (Optiplate 384-F, Perkin Elmer). Test compounds were dissolved in 100% DMSO at stock of 10 mM, with final DMSO concentration 0.1%. Test compounds were pre-incubated with MALT1 protein for 2 h at room temperature. Substrate was added after the pre-incubation and fluorescence signal was measured using Envision at excitation 355 nm and emission 460 nm after 8 hr incubation at RT. Increase in the assay signal was linear over this period and proportional with increase in the enzyme content.

Assay [2] concerns the target T1, Mucosa-associated lymphoid tissue lymphoma translocation protein 1. In words: MALT1 Protease Assay 2. The method, then:
Test compounds were dissolved in 100% DMSO at stock of 10 mM, with final DMSO concentration 0.1%. Test compounds were pre-incubated with MALT1 protein for 2 h at room temperature.

Structures are written as SMILES.

With `C[C@@]1(C(F)(F)F)CN(C(=O)Nc2cnc([C@H]3CCCCO3)c(Cl)c2)c2cnc3cc(Cl)nn3c21` [US20240018157, Example 47], in assay [1], the concentration for half-maximal inhibition (IC50) was in the range of 10 to 100 nM. Take `C[C@@]1(C(F)(F)F)CN(C(=O)Nc2cnc(-n3cc(O)cn3)c(Cl)c2)c2cnc3cc(Cl)nn3c21` [US20240018157, Example 48]: the IC50 in assay [1] is under 10 nM. On to `C[C@@]1(C(F)(F)F)CN(C(=O)Nc2cnc(OC(F)F)c(Cl)c2)c2cnc3cc(Cl)nn3c21` [US20240018157, Example 49], for which the half-maximal inhibitory concentration (IC50) in assay [1] was under 10 nM. Regarding `C[C@@]1(C(F)(F)F)CN(C(=O)N[C@@H]2CCCC(F)(F)C2)c2cnc3cc(Cl)nn3c21` [US20240018157, Example 54], the half-inhibitory concentration (IC50) in assay [1] was over 1000 nM; in assay [2], 100 to 1000 nM.

(Values after BindingDB's records for patent US20240018157 (Schrödinger, 2024).)
